Experimental data as given in patent publication US7504382B2 (priority 2003, dated 2009).
Values after ≈ are worked out from the molar mass of the structure shown. Square brackets hold non-standard residues; d marks the D form. Peptide text beside a SMILES is read from it. * marks the point of attachment. ξ: configuration not given here. ξE = NC(CCC(=O)O)C(=O)O; Cbz = O=C(OCc1ccccc1)*; CH2F = FC*

Assays:
[1] = test system: Vero-cells
[2] = test system: SARS-CoV infected Vero-cells; assay type: cell-based; details: concentration of 1 μM
[3] = test system: SARS-CoV infected Vero 76 cells; assay type: cell-based; details: for EC50 (protection from virus-induced cell death): SARS-CoV infected Vero 76 cells, 72 h, neutral red; for SI value: from TC50 and EC50, indication of potential therapeutical index
[4] = test system: uninfected Vero 76 cells

SMILES | toxicity at the same concentration [1] | inhibition of the cytopathic effect (CPE) of SARS-CoV [2] | EC50 (protection from virus-induced cell death) [3] | SI value [3] | TC50 (toxicity of the compound) [4]
CC(C)CC(NC(=O)C(NC(=O)OCc1ccccc1)C(C)C)C(=O)NC(CCC(=O)N(C)C)C(=O)CF (stereo not drawn) [Example 7, 4-(Cbz-Val-Leu-Amido)-6-Fluoro-5-Oxo-Hexanoic Acid Dimethylamide] (Cbz-Val-Leu-Glu(NMe2)-CH2F; configuration not given here) | no toxicity was observed | 94.5% | – | – | –
CNC(=O)CCC(NC(=O)[C@H](CC(C)C)NC(=O)OCc1ccccc1)C(=O)CF (stereo partly drawn) [Example 12, 4-(Cbz-Leu-Amido)-6-Fluoro-5-Oxo-Hexanoic Acid Methylamide] (Cbz-Leu-[ξE](NHMe)-CH2F) | no toxicity was observed | 100% | – | – | –
CC(C)[C@H](NC(=O)OCc1ccccc1)C(=O)NC(CC(=O)N(C)C)C(=O)CF (stereo partly drawn) [Example 17, 3-(Cbz-Val-Amido)-5-Fluoro-4-Oxo-Pentanoic Acid Dimethylamide] | – | – | 2.1 µg/mL (≈ 5.13 µM) | > 24 | > 50 µg/mL
CC(C)[C@H](NC(=O)OCc1ccccc1)C(=O)NC(CCC(=O)N(C)C)C(=O)CF (stereo partly drawn) [Example 24, 4-(Cbz-Val-Amido)-6-Fluoro-5-Oxo-Hexanoic Acid Dimethylamide] (Cbz-Val-[ξE](NMe2)-CH2F) | no toxicity was observed | 100% | 0.02 µg/mL (≈ 0.0472 µM) | > 500 | > 10 µg/mL
